Measured values from patent publication US9622953B2, “Cosmetic use of catalytic oxidation compounds chosen from porphyrins, phthalocyanines and/or porphyrazines as deodorant agent” (L'Oreal, priority 2011, dated 2017).

Experiments:
[1] = Test 1: Oxidation of 2,2,6,6-tetramethylpiperidine (TEMP); conditions: phosphate buffer pH 7.4, 50 mM TEMP, porphyrin 0.5 μM, oxygen saturated, daylight, 1 hour, EPR
Procedure: (§1) The oxidizing agent used during this test is dissolved oxygen.
A solution comprising a phosphate buffer (pH 7.4), 50 mM of the compound 2,2,6,6-tetramethylpiperidine (TEMP) and a porphyrin compound at 0.5 μM is prepared. The solution is saturated with oxygen. The solution is subjected to daylight.
After 1 hour, electron paramagnetic resonance spectrometry (EPR) is performed on the oxidized form of the compound 2,2,6,6-tetramethylpiperidine (TEMP), which corresponds to the compound (2,2,6,6-tetramethylpiperidin-1-yl)oxyl, known as TEMPO.
With a porphyrin compound according to the invention, the appearance of the compound TEMPO is observed after bringing into contact for 1 hour.

[2] = Test 3: Activation of Hydrogen Peroxide; conditions: 1 mM porphyrin in 10-volume hydrogen peroxide, spontaneous pH, daylight
Procedure: 1 mM of a porphyrin compound is placed in 10-volume hydrogen peroxide, spontaneous pH.
The solution is subjected to daylight.
The content of hydrogen peroxide is then assayed. The porphyrin compound is regarded as within the invention if it reduces the amount of hydrogen peroxide by factor of at least 2 (5 volumes or less).

[3] = Blind sniff test of incubated flasks of human sweat by a panel of 8 testers; conditions: 1 mg of porphyrin compound in flask of sweat, same trial as Example 1
Procedure: 1) Human sweat is collected. During this collecting, the sweat is frozen.
2) The sweat is subsequently placed in a flask, so that there is an air phase above, once the flask is closed. 1 gram of sweat is placed in a 20 ml flask.
3) The porphyrin compound is placed in the flask in a proportion of 0.1 mg.
4) The flask is closed and incubated at 37° C. A test is then carried out which consists in sniffing the flask at t=4 hours and at t=16 hours.
The test is carried out blind and in comparison with a flask of sweat not comprising additive, a flask of sweat comprising a porphyrin compound not included in the present invention, such as cupric chlorophyllin, and a flask of sweat comprising 0.1 mg of triclosan.
The test is carried out by a panel composed of 8 testers who record their impression in terms of odorous intensity and of quality (ranging from neutral up to repulsive) and the mean of the impressions is produced.
1 mg of each of the porphyrin compounds is introduced into flasks comprising sweat collected in the same way as in Example 1.

[4] = Test 2: Oxidation of DMPO; conditions: aqueous solution pH=7, 100 mM DMPO, porphyrin 100 μM, oxygen saturated, daylight, 1 hour, EPR
Procedure: as §1
An aqueous solution, pH=7, comprising 100 mM of DMPO and a porphyrin compound at 100 μM, is prepared. The solution is saturated with oxygen. The solution is subjected to daylight.
After 1 hour, electron paramagnetic resonance spectrometry (EPR) is performed on the oxidized form of the compound 5,5-dimethyl-1-pyrroline N-oxide, known as DMPO-OH.
More specifically, the EPR spectrum is characterized by a hyperfine coupling constant of a^N=a^H=14.6 G.

Compound	formation of the compound TEMPO (response to Test 1) [1]	reduction of the amount of hydrogen peroxide by factor of at least 2 (response to Test 3) [2]	effectiveness in the sweat flask odour trial [3]	formation of DMPO-OH (response to Test 2) [4]
O=S(=O)(O)c1ccc(-c2c3nc(c(-c4ccc(S(=O)(=O)O)cc4)c4ccc([nH]4)c(-c4ccc(S(=O)(=O)O)cc4)c4nc(c(-c5ccc(S(=O)(=O)O)cc5)c5ccc2[nH]5)C=C4)C=C3)cc1 [anionic porphyrin compound]	responds positively	responds positively	effective	–
copper chlorophyllin [reference compound]	does not result in the formation of the compound TEMPO	–	–	–
C[n+]1ccc(-c2c3nc(c(-c4cc[n+](C)cc4)c4ccc([nH]4)c(-c4cc[n+](C)cc4)c4nc(c(-c5cc[n+](C)cc5)c5ccc2[nH]5)C=C4)C=C3)cc1 [cationic porphyrin compound]	responds positively	–	effective	responds positively
